Consider one molecule from patent US12115177B1, “Application of phenyl glucuronide in preparing drug for pre-warning of cancer via induced volatolomics” (Shanghai Jiao Tong University, priority 2023, dated 2024).

The nature of series [1]: Stability verification of phenyl-β-D-glucuronide PBS solution (UPLC-MS and PDA detector). The conditions noted are these: for peak area of phenyl-β-D-glucuronide: 400 μg/mL in PBS, PDA detector at 280 nm. The format is physicochemical. On the procedure:
PBS is used as solvent to prepare a phenyl-β-D-glucuronide solution at a concentration of 400 micrograms per milliliter (μg/mL), 1 mL phenyl-β-D-glucuronide solution is added individually into 1.5-mL injection bottles and sealed. The four bottles of drug solutions are treated as follows: the bottle A is a ready-to-use drug immediately analyzed for composition using ultra performance liquid chromatography mass spectrometry (UPLC-MS); the bottle B is placed in a refrigerator at 4° C. for 2 weeks and then analyzed for composition using UPLC-MS; the bottle C is placed at room temperature (25° C.) for 1 week and then analyzed for composition using UPLC-MS; and the ready-to-use drug in bottle D is analyzed for composition using UPLC-MS and […] (PDA) detectors after heating for 7 hours at 38.5° C. in a water bath. In addition, a 20 parts per million (ppm) phenol standard solution is prepared for UPLC-MS and PDA analysis.
The results are shown in FIGS. 1A-1D, FIGS. 2A-2D, and FIGS. 3A-3E.
The main purpose of setting these three temperatures (i.e., room temperature, 4° C., and 38.5° C.) is to characterize that the drug can be stored in a 4° C. refrigerator or room temperature for a long time without decomposition or deterioration. From the peak area data, it can be seen that the drug can be stored in a 4° C. refrigerator for 2 weeks or at room temperature for 1 week, and the effective component of the drug, phenyl-β-D-glucuronide, is basically unchanged, so under the condition of qualified sealing conditions, the drug solution can be stored for a longer time, which has practical application potential.

A further series has as its target T1, β-glucuronidase (Escherichia coli, UniProt P05804).
T1 construct: purchased Sigma-Aldrich 8162
In words: In vitro enzymatic reaction with β-glucuronidase, headspace SPME GC-MS detection of phenol. It is filed as biochemical. To be noted: pH 6.8 buffer, 37° C., 1 hour. On the procedure: A buffer is prepared with sterile water, the main components of the buffer include 75 millimoles per liter (mM) potassium phosphate (KH2PO4) and 1% bovine serum albumin (BSA), and 1 mole per liter (M) potassium hydroxide (KOH) is used to adjust the pH to 6.8. A phenyl-β-D-glucuronide solution is prepared with deionized water at a concentration of 0.75 grams per liter (g/L). The experiment is divided into a reactive group (also referred to as experimental group) and a control group, and 2.6 mL of deionized water, 2 mL of buffer and 1 mL of phenyl-β-D-glucuronide solution are successively added into two 20 mL injection bottles. After shaking well, they are stabilized in a water bath at 37° C. for 10 minutes. 2 microliters (μL) of β-glucuronidase glycerol solution (enzyme content: 500 U) are added in the bottle of the reactive group, and 2 uL of glycerol is added in the bottle of the control group. The covers are quickly tightened for reacting in a water bath at 37° C. for 1 hour. After the reaction, the aged extraction core is used for headspace solid-phase microextraction (also referred to as solid phase microextraction) for 30 minutes.

Series [2] has as its system MGC-803 subcutaneous gastric cancer model.
Procedure: In the embodiment of the disclosure, the mice used are 6-week-old female BALB/c-nude mice, specific pathogen-free (SPF) grade, and the weight at purchase is 17±1.5 g. purchased from Shanghai Jessie Experimental Animal Co., Ltd. Mice are raised in cages in clean animal rooms. The cages are ventilated through a central control system. The indoor temperature is 25±2° C., and the feed and water are used after autoclaved.
After one week of adaptive feeding of the nude mice, the body weight is 20±2 g. During the feeding period, the growth and mental state of the mice are observed every day. The mice are randomly divided into two groups, namely a cancer group and a healthy group. In the cancer group, MGC-803 cells are used to construct a subcutaneous gastric cancer model. […] After the cells are adhered to the wall and grown to full size, they are digested with pancreatic enzyme, centrifuged, washed twice with PBS to remove residual serum, resuspended with PBS at a cell density of approximately about 5*10^7 cells/mL, and a cell inoculation volume of each mouse is 100 μL. The cell suspension used for inoculation should be inoculated within half an hour. During this period, the cells are placed on ice to reduce the metabolic activity of the cells to maintain cell activity. The tumor is implanted in the area with abundant blood supply in the middle and rear of the armpit, and the size of the tumor is measured weekly after the tumor is formed. Generally, the induced volatolomics experiment can be started at the third week after the implantation of the cells.
The exhaled breath extraction device enriches the volatile substances in the exhaled breath of mice to the extraction core of headspace solid-phase microextraction (SPME), which is used to analyze the composition and relative content of the exhaled breath of mice before and after drug administration. A large mouth glass container with a volume of about 400 mL is used, the bottle mouth is frosted, and the sealing gasket, silicone plug and fixing clip are used to ensure sealing. The device is cleaned and dried before use. The mice needed to extract exhaled breath components are put into the glass container. The whole device is placed in a constant temperature environment of 25° C., sealed for 1 hour, and supplemented with oxygen at an interval of 15 minutes by injecting 10 mL of pure oxygen (99.9%) through the silicone plug with a glass syringe. After sealing for 1 hour, a 75 μm Car/PDMS extraction core is inserted into the glass container through the silicone plug, and the black extraction core is extended for headspace solid-phase microextraction for 30 minutes. The extraction process is carried out at a constant temperature of 25° C., and the oxygen is supplemented regularly according to the above process.
The above 10 healthy mice and 10 tumor bearing mice are taken and injected with MGC-803 cells subcutaneously as Day 0 in the experiment.
Series [3] has as its system gastric mucosal epithelial cells. The conditions noted are these: 500 μg/mL, 40 hours incubation, CCK-8.
Procedure: There is culture medium without inoculation of the cells with 100 μL per well. After incubation for 40 hours, the culture medium is discarded, 100 μL DMEM medium containing 10% cell counting kit 8 (CCK-8) is added to each well, and then incubated in the incubator for 2 hours. The value of optical density (OD) at 450 nm is monitored with a microplate reader for each well, and the cell viability is calculated based on the value of optical density.

T1 sequence (P05804 whole entry): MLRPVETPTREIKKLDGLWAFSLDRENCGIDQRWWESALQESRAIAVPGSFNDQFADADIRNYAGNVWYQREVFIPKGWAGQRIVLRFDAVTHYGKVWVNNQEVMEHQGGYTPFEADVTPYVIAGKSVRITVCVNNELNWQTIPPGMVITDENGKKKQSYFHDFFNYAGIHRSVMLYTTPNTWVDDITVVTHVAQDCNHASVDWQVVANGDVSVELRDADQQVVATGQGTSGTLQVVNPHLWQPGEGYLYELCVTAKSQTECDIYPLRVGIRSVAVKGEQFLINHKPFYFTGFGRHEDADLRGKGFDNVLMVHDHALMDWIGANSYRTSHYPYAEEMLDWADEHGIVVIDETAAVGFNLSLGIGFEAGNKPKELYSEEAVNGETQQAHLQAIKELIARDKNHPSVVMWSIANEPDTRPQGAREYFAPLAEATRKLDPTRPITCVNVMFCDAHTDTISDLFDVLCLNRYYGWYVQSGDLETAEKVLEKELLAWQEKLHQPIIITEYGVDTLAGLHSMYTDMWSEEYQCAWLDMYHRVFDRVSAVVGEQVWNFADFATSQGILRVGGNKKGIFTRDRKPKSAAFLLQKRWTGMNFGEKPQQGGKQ

With `O=C(O)[C@H]1O[C@@H](Oc2ccccc2)[C@H](O)[C@@H](O)[C@@H]1O` [phenyl-β-D-glucuronide], the “peak area of phenyl-β-D-glucuronide” value in series [1] (bottle A, newly prepared) turned out to be 2143; in series [1] (bottle B, refrigerator at 4° C. for 2 weeks), 2142; in series [1] (bottle C, room temperature (25° C.) for 1 week), 2144; in series [1] (bottle D, heated 7 hours at 38.5° C. in a water bath), 2160. In addition, the “storage time of PBS solution” value in series [1] (4° C. refrigerator) is “at least 2 weeks”; in series [1] (room temperature) it was “at least 1 week”. Besides, the “new substances produced (other peaks) in the four bottles of solutions” value in series [1] (all four storage conditions, UPLC-MS and PDA) is recorded as “no other peaks of the new substances produced”. Further, the “peak of phenol in the four bottles of solutions compared with phenol standard” value in series [1] (all four storage conditions, versus 20 ppm phenol standard) is “no peak of phenol”. Besides, the “self-decomposition without the action of enzymes” value in series [1] (normal body temperature range (generally less than 38.5° C.)) is on record as “will not decompose by itself”. The “decomposition of substrate without β-glucuronidase” value at β-glucuronidase (control group, glycerol instead of enzyme) is given as “not decomposed”. Further, the “phenol production under the action of β-glucuronidase” value on β-glucuronidase (experimental group, 500 U enzyme) is “produces phenol”. In addition, the “phenol level in exhaled breath, tumor bearing mouse group versus healthy mouse group” value in series [2] (Day 0 (no solid tumors), 200 μg/kg intravenously, Mann-Whitney U-test) is “consistent without significant difference”. Besides, the “phenol level in exhaled breath, tumor bearing mouse group versus healthy group” value in series [2] (from the 10th day onwards (solid tumors about 100 mm^3), 200 μg/kg intravenously, p<0.01) is reported as “significantly higher”. Also, the “toxic or side effect in animal experiment” value in series [2] (mouse, in vivo) is recorded as “no toxic or side effect”. For the same molecule, the “fitted curve parameter A (tumor volume=A+B*phenol level in exhaled breath)” value in series [2] (tumor bearing mice, FIG. 6) came out at 2065116.64068±293370.09484. Besides, the “fitted curve parameter B (tumor volume=A+B*phenol level in exhaled breath)” value in series [2] (tumor bearing mice, FIG. 6) stood at 26167.51388±981.4. For the same molecule, the cell viability entry in series [3] is reported as “greater than 90%”.
